Laboratory results: US20190343922A1, “HISTATIN FOR CORNEAL WOUND HEALING AND OCULAR SURFACE DISEASE” (Rapid Pathogen Screening, Inc., priority 2012, published 2019)

How the values were obtained:
corneal wounds = assay: Corneal epithelial defect wound healing in rabbits (fluorescein staining, computerized area determination); assay type: in vivo, New Zealand White rabbits
Method: The study disclosed herein evaluates and quantifies the wound healing effects of histatins on the ocular surface of New Zealand White rabbits.
Epithelial defects are created in the right eye (oculus dexter, OD) of 12 New Zealand White rabbits. Due to animal regulations, bilateral wounding is not permitted. After the epithelial defects are made, the rabbits are randomized into treatment groups. Two (2) groups are treated with different cyclized histatin concentrations: 0.1 μg/ml and 10 μg/ml dissolved into an ophthalmic artificial tear preparation and delivered to the rabbits as an eye drop three times daily. Histatins known in the art, including, but not limited to, amino acid SEQ ID NOS: 1 through 33, which include Hst-1 (SEQ ID NO: 4), Hst-2 (SEQ ID NO: 5), Hst-3 (SEQ ID NO: 6), Hst-5 (SEQ ID NO: 30), and sortase cyclized histatin (SEQ ID NO: 33), may be used in these studies or in treatment protocols. […] This control group should receive the same vehicle identical to the other two groups but without histatin. An over-the-counter artificial tear preferably serves as the vehicle. The initial study included four (4) animals/group in three (3) groups, for a total of twelve rabbits.
Each rabbit group is preferably given moxifloxicin treatment to prevent infection.
(§1) The corneal wounds are then evaluated daily for the corneal wound healing abilities of histatin via fluorescein staining, fluorescent slit lamp biomicrophotography and computerized area determination. Evaluators are masked to the therapeutic treatment given to the rabbits. After healing, two (2) animals from each group are euthanized, and the corneas collected for histological processing (H&E staining with subsequent evaluation by veterinary histopathologist). The decision to perform histopathologic analysis after tissue procurement is made only if there is proven difference in healing between the different treatment groups and the controls. At study termination (study preferably continues for seven days), the remaining animals are euthanized.

rabbit corneas = conditions: in vivo
Method: as §1
The histatin used in this study was cyclized histatin 1.

## cyclo(DNLPETGGDSHEKRHHGYRRKFHEKHHSHREFPFYGDYGSNYLY) [cyclized histatin 1]
Corneal wounds; 0.1 μg/ml eye drop three times daily, 54 hours post wound
  Corneal wound size: 0.00 ± 0.00 mm^2
Corneal wounds; 0.1 μg/ml eye drop three times daily, 72 hours post wound
  Corneal wound size: 0.00 ± 0.00 mm^2
Corneal wounds; 0.1 ug/ml, 0 hours post wound
  Percentage of 1 hour post wound size: 100%
Corneal wounds; 0.1 ug/ml, 6 hours post wound
  Percentage of 1 hour post wound size: 85%
Corneal wounds; 0.1 ug/ml, 24 hours post wound
  Percentage of 1 hour post wound size: 69%
Corneal wounds; 0.1 ug/ml, 30 hours post wound
  Percentage of 1 hour post wound size: 43%
Corneal wounds; 0.1 ug/ml, 48 hours post wound
  Percentage of 1 hour post wound size: 2%
Corneal wounds; 0.1 ug/ml, 54 hours post wound
  Percentage of 1 hour post wound size: 0%
Corneal wounds; 0.1 ug/ml, 72 hours post wound
  Percentage of 1 hour post wound size: 0%
Corneal wounds; 10 μg/ml eye drop three times daily, 48 hours post wound
  Corneal wound size: 0.00 ± 0.07 mm^2
Corneal wounds; 10 μg/ml eye drop three times daily, 54 hours post wound
  Corneal wound size: 0.00 ± 0.00 mm^2
Corneal wounds; 10 μg/ml eye drop three times daily, 72 hours post wound
  Corneal wound size: 0.00 ± 0.00 mm^2
Corneal wounds; 10 ug/ml, 0 hours post wound
  Percentage of 1 hour post wound size: 100%
Corneal wounds; 10 ug/ml, 6 hours post wound
  Percentage of 1 hour post wound size: 84%
Corneal wounds; 10 ug/ml, 24 hours post wound
  Percentage of 1 hour post wound size: 58%
Corneal wounds; 10 ug/ml, 30 hours post wound
  Percentage of 1 hour post wound size: 43%
Corneal wounds; 10 ug/ml, 48 hours post wound
  Percentage of 1 hour post wound size: 0%
Corneal wounds; 10 ug/ml, 54 hours post wound
  Percentage of 1 hour post wound size: 0%
Corneal wounds; 10 ug/ml, 72 hours post wound
  Percentage of 1 hour post wound size: 0%
Corneal wounds; 0.1 and 10 μg/ml vs control, rabbits
  Healing activity of corneal wounds: significant dose dependent accelerated healing activity
Corneal wounds; wounds treated with 0.1 μg/ml or 10 μg/ml
  Wound healing speed compared with control at each time point: healed faster
Rabbit corneas
  Toxicity on pathological analysis of corneas: no toxicity
